In US12068150B2, “Substrate cleaning solution, and using the same, method for manufacturing cleaned substrate and method for manufacturing device” (Merck Patent GmbH, priority 2018, dated 2024):

assay: Evaluation of Solubility in 5.0 mass % ammonia water; assay type: physicochemical; settings: component (A), 100 ppm and 1,000 ppm, shaken 3 hours, checked visually
Protocol: The solubility can be evaluated by known methods. For example, it can be determined under the condition of 20-35° C. (more preferably 25±2° C.) by providing a flask charged with 100 ppm of the above (A) or the below-mentioned (B) in 5.0 mass % ammonia water, covering the flask with a cap, shaking for 3 hours in a shaker, and confirming whether (A) or (B) is dissolved or not. The shaking may be stirring. Dissolution can be also judged visually. […] In the present specification, soluble includes slightly soluble in a broad sense. In the present specification, the solubility becomes low in the order of insoluble, hardly soluble and soluble. In the present specification, slightly soluble is less soluble than soluble and more soluble than hardly soluble in a narrow sense.
4 mg of each component (for example, 2,2-bis (4-hydroxyphenyl) propane) to be used thereafter is put in a 50 mL sample bottle, and 5.0 mass % ammonia water is added to make the total amount to 40 g. Covering this with a cap, it is shaken and stirred for 3 hours. This gives a liquid having a component concentration of 100 ppm.
The same procedure as described above is carried out except that the amount of each component added is changed to 40 mg, and a liquid having a component concentration of 1,000 ppm is obtained. Their solubility is checked visually. Evaluation criteria are as shown below.
X: When the dissolution residue is confirmed at 100 ppm and 1,000 ppm, it is judged to be insoluble or hardly soluble.
Y: When the dissolution residue is not confirmed at 100 ppm but confirmed at 1,000 ppm, it is judged to be slightly soluble.
Z: When the dissolution residue is confirmed at neither 100 ppm nor 1,000 ppm, it is judged to be soluble.

| Compound | (A) Solubitity |
| --- | --- |
| Oc1ccc(C(c2ccccc2)(c2ccccc2)c2ccc(O)cc2)cc1 [A11, 4,4′-dihydroxytetraphenylmethane] | X (When the dissolution residue is confirmed at 100 ppm and 1,000 ppm, it is judged to be insoluble or hardly soluble.) |

same assay, conditions: component (B), 100 ppm and 1,000 ppm, shaken 3 hours, checked visually

| Compound | (B) Solubitity |
| --- | --- |
| CC(C)(c1ccc(O)cc1)c1ccc(O)cc1 [B1, 2,2-bis(4-hydroxyphenyl)propane] | Y (When the dissolution residue is not confirmed at 100 ppm but confirmed at 1,000 ppm, it is judged to be slightly soluble.) |
| Oc1ccc(CC(c2ccc(O)cc2)(c2ccc(O)cc2)c2ccc(O)cc2)cc1 [B2, 1,2,2,2-tetrakis(4-hydroxyphenyl)ethane] | Z (When the dissolution residue is confirmed at neither 100 ppm nor 1,000 ppm, it is judged to be soluble.) |
| OC1CCCC(O)C1 (centres unmarked) [B3, 1,3-cyclohexanediol] | Z (When the dissolution residue is confirmed at neither 100 ppm nor 1,000 ppm, it is judged to be soluble.) |
| Cc1ccc(O)c(Cc2cc(C)cc(Cc3cc(C)ccc3O)c2O)c1 [B4, 2,6-bis[(2-hydroxy-5-methylphenyl)methyl]-4-methylphenol] | Y (When the dissolution residue is not confirmed at 100 ppm but confirmed at 1,000 ppm, it is judged to be slightly soluble.) |
| Cc1ccc(O)c(Cc2cc(C)ccc2O)c1 [B5, 2,2′-methylenebis(4-methylphenol)] | Z (When the dissolution residue is confirmed at neither 100 ppm nor 1,000 ppm, it is judged to be soluble.) |
| Oc1ccc(-c2ccc(O)cc2)cc1 [B6, 4,4′-dihydroxybiphenyl] | Y (When the dissolution residue is not confirmed at 100 ppm but confirmed at 1,000 ppm, it is judged to be slightly soluble.) |
| Oc1ccc2cc(O)ccc2c1 [B7, 2,6-naphthalenediol] | Y (When the dissolution residue is not confirmed at 100 ppm but confirmed at 1,000 ppm, it is judged to be slightly soluble.) |
| CC(C)(O)C#CC(C)(C)O [B8, 2,5-dimethyl-3-hexyne-2,5-diol] | Z (When the dissolution residue is confirmed at neither 100 ppm nor 1,000 ppm, it is judged to be soluble.) |
| CCC(C)(O)C#CC(C)(O)CC (centres unmarked) [B9, 3,6-dimethyl-4-octin-3,6-diol] | Z (When the dissolution residue is confirmed at neither 100 ppm nor 1,000 ppm, it is judged to be soluble.) |
| CC(C)(C)c1cc(O)c(C(C)(C)C)cc1O [B10, 2,5-di-tert-butylhydroquinone] | Z (When the dissolution residue is confirmed at neither 100 ppm nor 1,000 ppm, it is judged to be soluble.) |
